Test results: US8021664B2, “Tumor antigens Bfa5 for prevention and/or treatment of cancer” (Sanofi Pasteur Limited, priority 2003, dated 2011)
Where no end group is shown, it is not given here. KLH = keyhole limpet hemocyanin carrier protein

How the values were obtained:
[1] = Rabbit immunization with BFA5 peptides, serum IgG titer; type: in vivo; conditions: for IgG titer × 10^5 (After first Immunization Rb1/Rb2): after first immunization (peptide in FCA); for IgG titer × 10^5 (After second Immunization Rb1/Rb2): after second immunization (KLH-coupled peptide in FIA)
Description: Prebleed samples from rabbits were processed and stored at −20° C. Rabbits were immunized as follows: 1) the peptides were administered as an emulsion with Freund's Complete Adjuvant (FCA); and, 2) two weeks later, the peptides were coupled with Keyhole-Limpet Hemocyanin (KLH)-coupled and administered as an emulsion with Freund's Incomplete Adjuvant FIA.

[2] = test system: HLA-A*0201 human T cells; assay: IFN-γ ELISPOT on human T-cell cultures activated with BFA5 peptides pulsed on autologous dendritic cells; type: cell-based; conditions: for BFA5 peptides eliciting high IFN-γ release (>200 spots/100,000 cells): a peptide given is positive
Description: A library of 100 peptides from the BFA5/NYBR-1 coding sequence that are predicted to be medium to high binders to HLA-A*0201 were designed using Rammensee and Parker algorithms. The library was sub-divided into 10 pools of ten peptides (Table III), and each pool was used to activate 10 different T cell cultures after pulsing peptides on to mature autologous dendritic cells.
ELISPOT analysis was performed on human T-cell cultures activated through four rounds of stimulation with each pool of BFA5 peptides. Reactivity against a CMV pp 65 peptide and a Flu matrix peptide were used as positive controls for T-cell activation in the experiments. Each experiment was performed with PBMC and dendritic cells from a single HLA-A*0201^+ donor designated as “AP10”. […] Similar results were obtained for both BFA4 and BFA5/NYBR-1 with a different HLA-A*0201. […] Cultures having a reading of 600 spots have more than this number of spots.
A large number of the BFA5 peptide pools of are reactive as shown by the high levels of IFN-γ production. Each reactive peptide pool was then separated into individual peptides and analyzed for immunogencity using ELISPOT analysis to isolate single reactive BFA5 peptides. BFA5 is highly immunogenic with several reactive single peptides than that of BFA4. Similar results were obtained in two independent PBMC culture experiments.

[3] = test system: peptide-loaded T2 cells; assay: 51Cr-release CTL assay of peptide-activated T cells; conditions: a peptide given is positive
Description: In addition to ELISPOT analysis, human T cells activated by BFA5 peptides were assayed to determine their ability to function as CTL. The cells were activated using peptide-pulsed dendritic cells followed by CD40 ligand-activated B cells (5 rounds of stimulation). […] Isolated T cells were tested in ^51Cr-release assays using peptide-loaded T2 cells. The % specific lysis at a 10:1, 5:1, and 1:1 T-cell to target ratio is shown for T2 cells pulsed with either pools of BFA5/NYBR-1 peptides or with individual peptides.

Substance: KLH-AENTMLTSKLKEKQDKEILEAEI ({KLH}-AENTMLTSKLKEKQDKEILEAEI; listed as Homo sapiens) [CLP 2981]
- IgG titer × 10^5 (After first Immunization Rb1/Rb2) ([1]; rabbit Rb1): 8 × 10^5
- IgG titer × 10^5 (After second Immunization Rb1/Rb2) ([1]; rabbit Rb1): 256 × 10^5
- IgG titer × 10^5 (After first Immunization Rb1/Rb2) ([1]; rabbit Rb2): 4 × 10^5
- IgG titer × 10^5 (After second Immunization Rb1/Rb2) ([1]; rabbit Rb2): 64 × 10^5

Substance: 59 (MLKLEIATL; listed as Homo sapiens) [compound 59]
- BFA5 peptides eliciting high IFN-γ release (>200 spots/100,000 cells) ([2]; Donor AP10): MLKLEIATL
- BFA5 peptides eliciting high IFN-γ release (>200 spots/100,000 cells) ([2]; Donor AP31): MLKLEIATL
- BFA5 peptides inducing CTL lysis of pulsed cells ([3]; Donor AP31): MLKLEIATL

Substance: 57 (KSQEPAFHI; listed as Homo sapiens) [compound 57]
- BFA5 peptides eliciting high IFN-γ release (>200 spots/100,000 cells) ([2]; Donor AP31): KSQEPAFHI

Substance: 84 (NLVDVYGNM; listed as Homo sapiens) [compound 84]
- BFA5 peptides eliciting high IFN-γ release (>200 spots/100,000 cells) ([2]; Donor AP10): NLVDVYGNM
- BFA5 peptides inducing CTL lysis of pulsed cells ([3]; Donor AP10): NLVDVYGNM

Substance: 72 (SLKINLNYA; listed as Homo sapiens) [compound 72]
- BFA5 peptides eliciting high IFN-γ release (>200 spots/100,000 cells) ([2]; Donor AP10): SLKINLNYA
- BFA5 peptides eliciting high IFN-γ release (>200 spots/100,000 cells) ([2]; Donor AP31): SLKINLNYA
- BFA5 peptides inducing CTL lysis of pulsed cells ([3]; Donor AP31): SLKINLNVA

Substance: 11 (TVSQKDVCL; listed as Homo sapiens) [compound 11]
- BFA5 peptides eliciting high IFN-γ release (>200 spots/100,000 cells) ([2]; Donor AP10): TVSQKDVCL

Substance: 51 (NLNYAGDAL; listed as Homo sapiens) [compound 51]
- BFA5 peptides eliciting high IFN-γ release (>200 spots/100,000 cells) ([2]; Donor AP10): NLNYAGDAL
- BFA5 peptides eliciting high IFN-γ release (>200 spots/100,000 cells) ([2]; Donor AP31): NLNYAGDAL

Substance: KLH-TSEKFTWPAKGRPRKIAWEKKED ({KLH}-TSEKFTWPAKGRPRKIAWEKKED; listed as Homo sapiens) [CLP 2978]
- IgG titer × 10^5 (After first Immunization Rb1/Rb2) ([1]; rabbit Rb1): 25/25 × 10^5
- IgG titer × 10^5 (After second Immunization Rb1/Rb2) ([1]; rabbit Rb1): 64 × 10^5
- IgG titer × 10^5 (After first Immunization Rb1/Rb2) ([1]; rabbit Rb2): 25/25 × 10^5
- IgG titer × 10^5 (After second Immunization Rb1/Rb2) ([1]; rabbit Rb2): 256 × 10^5

Substance: KLH-MTKRKKTINLNIQDAQKRTALHW ({KLH}-MTKRKKTINLNIQDAQKRTALHW; listed as Homo sapiens) [CLP 2977]
- IgG titer × 10^5 (After first Immunization Rb1/Rb2) ([1]; rabbit Rb1): 25 × 10^5
- IgG titer × 10^5 (After second Immunization Rb1/Rb2) ([1]; rabbit Rb1): 256 × 10^5
- IgG titer × 10^5 (After first Immunization Rb1/Rb2) ([1]; rabbit Rb2): 6 × 10^5
- IgG titer × 10^5 (After second Immunization Rb1/Rb2) ([1]; rabbit Rb2): 64 × 10^5

Substance: 32 (AVYSEILSV; listed as Homo sapiens) [compound 32]
- BFA5 peptides eliciting high IFN-γ release (>200 spots/100,000 cells) ([2]; Donor AP10): AVYSEILSV

Substance: 77 (AELQMTLKL; listed as Homo sapiens) [compound 77]
- BFA5 peptides eliciting high IFN-γ release (>200 spots/100,000 cells) ([2]; Donor AP10): AELQMTLKL
- BFA5 peptides inducing CTL lysis of pulsed cells ([3]; Donor AP10): AELQMTLKL
- BFA5 peptides inducing CTL lysis of pulsed cells ([3]; Donor AP31): AELQMTLKL

Substance: 24 (QLQSKNMWL; listed as Homo sapiens) [compound 24]
- BFA5 peptides eliciting high IFN-γ release (>200 spots/100,000 cells) ([2]; Donor AP10): QLQSKNMWL
- BFA5 peptides eliciting high IFN-γ release (>200 spots/100,000 cells) ([2]; Donor AP31): QLQSKNMWL
- BFA5 peptides inducing CTL lysis of pulsed cells ([3]; Donor AP31): QLQSKNMWL

Substance: KLH-NYNNHLKNRIYQYEKEKAETENS ({KLH}-NYNNHLKNRIYQYEKEKAETENS; listed as Homo sapiens) [CLP 2982]
- IgG titer × 10^5 (After first Immunization Rb1/Rb2) ([1]; rabbit Rb1): 2/2 × 10^5
- IgG titer × 10^5 (After second Immunization Rb1/Rb2) ([1]; rabbit Rb1): 64 × 10^5
- IgG titer × 10^5 (After first Immunization Rb1/Rb2) ([1]; rabbit Rb2): 2/2 × 10^5
- IgG titer × 10^5 (After second Immunization Rb1/Rb2) ([1]; rabbit Rb2): 32 × 10^5

Substance: BFA4: tumor antigen BFA4 (SEQ ID NOS.: 1 and 2), compared with BFA5 in T-cell ELISPOT
- ELISPOT reactivity (IFN-γ production) of peptide pools ([2]; four rounds of stimulation, HLA-A*0201+ donor AP10, counts per 100,000 cells): markedly reactive

Substance: 74 (ATCGMKVSI; listed as Homo sapiens) [compound 74]
- BFA5 peptides eliciting high IFN-γ release (>200 spots/100,000 cells) ([2]; Donor AP10): ATCGMKVSI
- BFA5 peptides inducing CTL lysis of pulsed cells ([3]; Donor AP10): ATCGMKVSI

Substance: 12 (SVPNKALEL; listed as Homo sapiens) [compound 12]
- BFA5 peptides eliciting high IFN-γ release (>200 spots/100,000 cells) ([2]; Donor AP10): SVPNKALEL

Substance: 85 (KCTALMLAV; listed as Homo sapiens) [compound 85]
- BFA5 peptides eliciting high IFN-γ release (>200 spots/100,000 cells) ([2]; Donor AP10): KCTALMLAV

Substance: 30 (KVMEINREV; listed as Homo sapiens) [compound 30]
- BFA5 peptides eliciting high IFN-γ release (>200 spots/100,000 cells) ([2]; Donor AP10): KVMEINREV

Substance: 49 (SVPNKAFEL; listed as Homo sapiens) [compound 49]
- BFA5 peptides eliciting high IFN-γ release (>200 spots/100,000 cells) ([2]; Donor AP10): SVPNKAFEL

Substance: 61 (MLKKEIAML; listed as Homo sapiens) [compound 61]
- BFA5 peptides eliciting high IFN-γ release (>200 spots/100,000 cells) ([2]; Donor AP31): MLKKEIAML

Substance: 63 (ALRIQDIEL; listed as Homo sapiens) [compound 63]
- BFA5 peptides eliciting high IFN-γ release (>200 spots/100,000 cells) ([2]; Donor AP10): ALRIQDIEL

Substance: KLH-DEILPSESKQKDYEENSWDTESL ({KLH}-DEILPSESKQKDYEENSWDTESL; listed as Homo sapiens) [CLP 2979]
- IgG titer × 10^5 (After first Immunization Rb1/Rb2) ([1]; rabbit Rb1): 12 × 10^5
- IgG titer × 10^5 (After second Immunization Rb1/Rb2) ([1]; rabbit Rb1): 256 × 10^5
- IgG titer × 10^5 (After first Immunization Rb1/Rb2) ([1]; rabbit Rb2): 25 × 10^5
- IgG titer × 10^5 (After second Immunization Rb1/Rb2) ([1]; rabbit Rb2): 512 × 10^5

Substance: 9 (SIPTKALEL; listed as Homo sapiens) [compound 9]
- BFA5 peptides eliciting high IFN-γ release (>200 spots/100,000 cells) ([2]; Donor AP10): SIPTKALEL
- BFA5 peptides inducing CTL lysis of pulsed cells ([3]; Donor AP31): SIPTKALEL

Substance: 67 (VLKKKLSEA; listed as Homo sapiens) [compound 67]
- BFA5 peptides eliciting high IFN-γ release (>200 spots/100,000 cells) ([2]; Donor AP31): VLKKKLSEA

Substance: 78 (VFAADICGV; listed as Homo sapiens) [compound 78]
- BFA5 peptides eliciting high IFN-γ release (>200 spots/100,000 cells) ([2]; Donor AP31): VFAADICGV

Substance: 8 (KVSIPTKAL; listed as Homo sapiens) [compound 8]
- BFA5 peptides eliciting high IFN-γ release (>200 spots/100,000 cells) ([2]; Donor AP10): KVSIPTKAL
- BFA5 peptides inducing CTL lysis of pulsed cells ([3]; Donor AP31): KVSIPTKAL

Substance: KLH-RLTLNQEEEKRRNADILNEKIRE ({KLH}-RLTLNQEEEKRRNADILNEKIRE; listed as Homo sapiens) [CLP 2980]
- IgG titer × 10^5 (After first Immunization Rb1/Rb2) ([1]; rabbit Rb1): 25 × 10^5
- IgG titer × 10^5 (After second Immunization Rb1/Rb2) ([1]; rabbit Rb1): 1024 × 10^5
- IgG titer × 10^5 (After first Immunization Rb1/Rb2) ([1]; rabbit Rb2): 12 × 10^5
- IgG titer × 10^5 (After second Immunization Rb1/Rb2) ([1]; rabbit Rb2): 128 × 10^5

Substance: 54 (GVTAEHYAV; listed as Homo sapiens) [compound 54]
- BFA5 peptides eliciting high IFN-γ release (>200 spots/100,000 cells) ([2]; Donor AP31): GVTAEHYAV

Substance: 28 (SLSKILDTV; listed as Homo sapiens) [compound 28]
- BFA5 peptides eliciting high IFN-γ release (>200 spots/100,000 cells) ([2]; Donor AP10): SLSKILDTV
- BFA5 peptides eliciting high IFN-γ release (>200 spots/100,000 cells) ([2]; Donor AP31): SLSKILDTV
- BFA5 peptides inducing CTL lysis of pulsed cells ([3]; Donor AP31): SLSKILDTV

Substance: 37 (SLTPLLLSI; listed as Homo sapiens) [compound 37]
- BFA5 peptides eliciting high IFN-γ release (>200 spots/100,000 cells) ([2]; Donor AP10): SLTPLLLSI
- BFA5 peptides eliciting high IFN-γ release (>200 spots/100,000 cells) ([2]; Donor AP31): SLTPLLLSI
- BFA5 peptides inducing CTL lysis of pulsed cells ([3]; Donor AP31): SLTPLLLSI

Substance: 81 (ILKEKNAEL; listed as Homo sapiens) [compound 81]
- BFA5 peptides eliciting high IFN-γ release (>200 spots/100,000 cells) ([2]; Donor AP10): ILKEKNAEL
- BFA5 peptides eliciting high IFN-γ release (>200 spots/100,000 cells) ([2]; Donor AP31): ILKEKNAEL
